Test results from article PMC6425606 (Journal for Immunotherapy of Cancer, 2019).
Where two headings read alike, the source gives them in different places.

What was measured:
[1] = Epacadostat plasma pharmacokinetics (LC-MS/MS, noncompartmental analysis); assay type: in vivo, human
Procedure: SAS® software, version 9.4 (SAS Institute Inc., Cary, NC) was used to generate all tables, graphs, and statistical analyses. […] Descriptive statistics were used to present summaries of continuous and categorical variables. Survival data (OS, PFS) were analyzed using the nonparametric Kaplan-Meier method.
Thirty-six patients were evaluable for pharmacokinetic analyses. […] Steady-state pharmacokinetic observations (Cycle 1, Day 10) are summarized in Additional file 1: Table S3.

[2] = design: method as in PMID 28053021; conditions: epacadostat monotherapy 300 mg BID, patients with advanced malignancies; cited from earlier work
metastatic melanoma = tested on: metastatic melanoma; design: method as in PMID 20525992, PMID 27622997, PMID 26027431; conditions: ipilimumab monotherapy, previously treated patients; cited from earlier work
untreated melanoma = conditions: human, in vivo; cited from earlier work
[3] = epacadostat 25 mg BID (n=10), steady state Cycle 1 Day 10
[4] = epacadostat 50 mg BID continuous (n=13), steady state Cycle 1 Day 10
[5] = epacadostat 50 mg BID intermittent (n=7), steady state Cycle 1 Day 10
[6] = epacadostat 300 mg BID (n=6), steady state Cycle 1 Day 10

NS(=O)(=O)NCCNc1nonc1C(=NO)Nc1ccc(F)c(Br)c1 [epacadostat]
Increase of pharmacokinetic exposures (Cmax, AUC0–12h) with dose ([1]; between 25 mg BID and 300 mg BID): dose-proportional | CL/F, geometric mean [1, 3]: 61.3 L/h | CL/F, mean ± SD [1, 3]: 68.9 ± 32.1 L/h | Cmin, mean ± SD [1, 3]: 30 ± 30 nM | CL/F, geometric mean [1, 4]: 64.2 L/h | CL/F, mean ± SD [1, 4]: 69.7 ± 29.8 L/h | Cmin, mean ± SD [1, 4]: 60 ± 50 nM | tmax, median [1, 4]: 2.0 h | Cmax ([1]; epacadostat 50 mg BID continuous (n=13), steady state Cycle 1 Day 10, read-out: Cmax, geometric mean): 400 nM | Cmax ([1]; epacadostat 50 mg BID continuous (n=13), steady state Cycle 1 Day 10, read-out: Cmax, mean ± SD): 500 ± 200 nM | CL/F, geometric mean [1, 5]: 54.4 L/h | CL/F, mean ± SD [1, 5]: 57.6 ± 21.7 L/h | Cmin, mean ± SD [1, 5]: 60 ± 40 nM | Cmax ([1]; epacadostat 50 mg BID intermittent (n=7), steady state Cycle 1 Day 10, read-out: Cmax, geometric mean): 500 nM | CL/F, geometric mean [1, 6]: 74.8 L/h | CL/F, mean ± SD [1, 6]: 77.6 ± 22.2 L/h | Cmin, geometric mean [1, 6]: 200 nM | Cmin, mean ± SD [1, 6]: 300 ± 200 nM | AUC(0-t) ([1]; human, plasma, oral, 25 mg, epacadostat 25 mg BID (n=10), steady state Cycle 1 Day 10, read-out: AUC0–12h, geometric mean): 0.9 µM·h | AUC(0-t) ([1]; human, plasma, oral, 25 mg, epacadostat 25 mg BID (n=10), steady state Cycle 1 Day 10, read-out: AUC0–12h, mean ± SD): 1.1 ± 0.7 µM·h | half-life ([1]; human, plasma, oral, 25 mg, epacadostat 25 mg BID (n=10), steady state Cycle 1 Day 10, read-out: t½, geometric mean (converted)): 7.4 h | half-life ([1]; human, plasma, oral, 25 mg, epacadostat 25 mg BID (n=10), steady state Cycle 1 Day 10, read-out: t½, mean ± SD (converted)): 9.1 ± 6.1 h | AUC(0-t) ([1]; human, plasma, oral, 50 mg, epacadostat 50 mg BID continuous (n=13), steady state Cycle 1 Day 10, read-out: AUC0–12h, geometric mean): 1.8 µM·h | AUC(0-t) ([1]; human, plasma, oral, 50 mg, epacadostat 50 mg BID continuous (n=13), steady state Cycle 1 Day 10, read-out: AUC0–12h, mean ± SD): 1.9 ± 0.8 µM·h | half-life ([1]; human, plasma, oral, 50 mg, epacadostat 50 mg BID continuous (n=13), steady state Cycle 1 Day 10, read-out: t½, geometric mean (converted)): 5.9 h | half-life ([1]; human, plasma, oral, 50 mg, epacadostat 50 mg BID continuous (n=13), steady state Cycle 1 Day 10, read-out: t½, mean ± SD (converted)): 7.1 ± 5.5 h | AUC(0-t) ([1]; human, plasma, oral, 50 mg, epacadostat 50 mg BID intermittent (n=7), steady state Cycle 1 Day 10, read-out: AUC0–12h, geometric mean): 2.1 µM·h | AUC(0-t) ([1]; human, plasma, oral, 50 mg, epacadostat 50 mg BID intermittent (n=7), steady state Cycle 1 Day 10, read-out: AUC0–12h, mean ± SD): 2.2 ± 0.7 µM·h | half-life ([1]; human, plasma, oral, 50 mg, epacadostat 50 mg BID intermittent (n=7), steady state Cycle 1 Day 10, read-out: t½, geometric mean (converted)): 4.5 h | half-life ([1]; human, plasma, oral, 50 mg, epacadostat 50 mg BID intermittent (n=7), steady state Cycle 1 Day 10, read-out: t½, mean ± SD (converted)): 5.1 ± 2.9 h | AUC(0-t) ([1]; human, plasma, oral, 300 mg, epacadostat 300 mg BID (n=6), steady state Cycle 1 Day 10, read-out: AUC0–12h, geometric mean): 9.2 µM·h | AUC(0-t) ([1]; human, plasma, oral, 300 mg, epacadostat 300 mg BID (n=6), steady state Cycle 1 Day 10, read-out: AUC0–12h, mean ± SD): 9.5 ± 3 µM·h | half-life ([1]; human, plasma, oral, 300 mg, epacadostat 300 mg BID (n=6), steady state Cycle 1 Day 10, read-out: t½, geometric mean (converted)): 5.4 h | half-life ([1]; human, plasma, oral, 300 mg, epacadostat 300 mg BID (n=6), steady state Cycle 1 Day 10, read-out: t½, mean ± SD (converted)): 6.2 ± 3.5 h | half-life ([1]; human, plasma, po, repeat oral doses of 25 mg BID, 50 mg BID, 50 mg BID intermittent, 300 mg BID, read-out: Mean terminal elimination half-life (t½)): 5 to 9 h | Tmax ([1]; human, plasma, repeat oral doses of 25 mg BID, 50 mg BID, 50 mg BID intermittent, 300 mg BID, read-out: Median time of maximum observed concentration (tmax)): ~2 h | Geometric mean AUC [2]: 9.8 µM·h

ipilimumab: anti-CTLA-4 antibody, immune checkpoint inhibitor
Overall response rate (metastatic melanoma): 11% | Patients with grade 3/4 treatment-emergent AEs (untreated melanoma): 56% | Rate of irAEs (grade 3/4) (untreated melanoma): 19%
